From patent publication US20110294728A1, “Antiviral Polypeptides” (priority 2008, published 2011)
Where a SMILES comes first, the peptide text is derived from it. Bridges are numbered along the chain shown (N, C = ends). Where no end group is shown, it is not given here.

Legend:
[1] = molecular target: T1, HIV-1 RT (Human immunodeficiency virus type 1 group M subtype B, UniProt P03366); test: biochemical
T1 construct: The heterodimeric p66/p51 RT was eluted with an imidazole gradient; p66 and p51 derived from p66 by proteolytic cleavage of the C-terminal RNAse H domain; made in house; host or cells: E. coli (M15 for the His-tagged subunits)
Experimental: RNA-dependent-DNA RT-polymerase activity was measured in a standard reaction assay using poly(rA)-(dT)15 as template/primer as described in Restle et al. (1990). Ten microliters of reverse transcriptase (RT) at 20 nM was incubated at 37° C. for 30 min with 20 μL of reaction buffer (50 mM Tris, pH 8.0, 80 mM KCl, 6 mM MgCl2, 5 mM DTT, 0.15 μM poly(rA-dT), 15 μM dTTP, 0.3 μCi 3H-dTTP). For peptide evaluation, HIV-1 RT was incubated with increasing concentrations of peptide inhibitors for […], and polymerase reaction was initiated by adding reaction buffer. Reactions were stopped by precipitation of nucleic acids with 5 ml of 20% trichloroacetic acid (TCA) solution for 2 h on ice, then filtered using a multiwell-sample collector (Millipore), and washed with 5% TCA solution. Filters were dried at 55° C. for 30 min and radionucleotide incorporation was determined by liquid scintillation spectrometry.
A series of peptides have been derived from Pep-A sequence (SEQ ID NO: 28), which is derived from HIV-1 reverse transcriptase. First, P1 peptide (SEQ ID NO: 1) was obtained by removing the N-terminal arginine of Pep-A. Then, additional peptides were generated by performing an alanine scan on P1. P1-derived peptides were evaluated using a standard polymerase RT assay. Reported data correspond to the mean of three separate experiments.

[2] = test system: HIV-1-LAI strain; conditions: for IC50, block of viral proliferation (in words): peptide associated with Pep-1
Experimental: The anti-HIV activities of the peptides were assayed according to the methods described in Roisin et al. (2004). Phytohemagglutinin-P(PHA-P)-activated peripheral blood mononuclear cells (PBMC) treated by increasing concentrations of peptide (from 100 to 0.1 nM), one hour later, were infected with hundred 50% tissue culture infectious doses (TCID50) per 100,000 cells of the HIV-1-LAI strain (Barre-Sinoussi et al., 1983). This virus was amplified in vitro on PHA-P-activated PBMC. Viral stock was titrated using PHA-P-activated PBMC, and 50% TCID50 were calculated using Kärber's formula (Kärber, 1931). Samples were maintained throughout the culture, and cell supernatants were collected at day 7 post-infection and stored at −20° C. Viral replication was measured by quantifying reverse transcriptase (RT) activity in cell culture supernatants. In parallel, cytotoxicity of the compounds was evaluated in uninfected PHA-P-activated PBMC by colorimetric 3-(4-5 dimethylthiazol-2-yl)2,5diphenyl tetrazolium bromite (MTT) assay on day 7 (as described in Mossmann, 1983). Experiments were performed in triplicate and repeated with another blood donor. Data analyses were performed using SofiMax® Pro 4.6 microcomputer software: percent of inhibition of RT activity or of cell viability were plotted vs concentration and fitted with quadratic curves; 50% effective doses (ED50) and cytotoxic doses (CD50) were calculated.
In order to avoid any limitation due to the poor ability of peptides to cross cellular membranes, they were associated to the peptide-based nanoparticle delivery system Pep-1 (SEQ ID NO: 29), at a 1/10 molar ratio.

[3] = molecular target: T2, HIV-1 integrase (Human immunodeficiency virus type 1 group M subtype B, UniProt P04585); test: biochemical; type: binding
T2 construct: Integrase is a 32 kDA viral protein that is biologically active under a multimeric form
Experimental: Fluorescein-labeled peptides (40 nM) were mixed with varying concentrations of integrase in 20 mM Tris pH 7.2, 50 mM NaCl, 10 mM MgCl2, and the r values were recorded.
Effect of the different peptides on the integrase (IN) activity, DNA binding and IN/DNA dissociation were evaluated as described in Example III.1 above, using fluorescence polarization and anisotropy measurements. Binding constant of the peptide for IN was determined by steady state fluorescence and anisotropy.

[4] = molecular target: T2, HIV-1 integrase; test: biochemical
Experimental: The simultaneous measurement of integrase-DNA interaction and subsequent 3′-processing activity by steady-state fluorescence anisotropy was performed as described in Guiot et al. (2006). […] After the initial DNA-binding step (performed at 25° C.), the 3′-processing activity was measured at 37° C. by fixed-time experiments: The reaction was stopped at varying times by adding SDS (0.25% final) which disrupts all IN-DNA complexes in the sample. The IN-mediated cleavage of the terminal GT dinucleotide (labeled by fluorescein on the 3′-end) leads to a significant decrease of r as compared to the r value corresponding to the fluorescein-labeled unprocessed DNA substrate. The fraction of released dinucleotide is calculated by using Eq. (1): […]

Row | Compound | Ki [1] [µM] | other results
1 | CC[C@H](C)[C@@H]1NC(=O)[C@H](Cc2c[nH]c3ccccc23)NC(=O)[C@H](CCC(=O)O)NC(=O)[C@H]([C@@H](C)O)NC(=O)[C@H](CC(C)C)NC(=O)[C@H](Cc2c[nH]c3ccccc23)NC(=O)[C@H](CCCCN)NC(=O)[C@H]([C@@H](C)O)NC(=O)CNC(=O)[C@@H](N)CSSC[C@@H](C(=O)O)NC(=O)[C@H](CCC(=O)O)NC(=O)[C@H](C)NC(=O)[C@H](CCC(=O)O)NC(=O)[C@H](C)NC(=O)[C@H]([C@@H](C)O)NC(=O)[C@H](CC(C)C)NC(=O)[C@@H]2CCCN2C1=O [PAW-C1] (H-CGTKWLTEWIPLTAEAEC-OH; disulfide 1-18) | 0.2 | EC50 ([2]; read-out: EC50 HIV-1 lai, Table 10): 0.0012 µM; Kd [3]: 0.29 µM; Ki [4]: 21 µM
2 | CC[C@H](C)[C@H](NC(=O)[C@@H](NC(=O)[C@H](CCC(=O)O)NC(=O)[C@@H](NC(=O)[C@H](CC(C)C)NC(=O)[C@H](C)NC(=O)[C@H](CCCCN)NC(=O)[C@@H](NC(=O)CNC(=O)[C@@H](N)CCCNC(=N)N)[C@@H](C)O)[C@@H](C)O)C(C)C)C(=O)N1CCC[C@H]1C(=O)N[C@@H](CC(C)C)C(=O)N[C@H](C(=O)N[C@@H](CCC(=O)O)C(=O)N[C@@H](CCC(=O)O)C(=O)N[C@@H](C)C(=O)N[C@@H](CCC(=O)O)C(=O)O)[C@@H](C)O [Pep-A, reference compound] | 35 | antiviral activity (in words) ([2]; associated to Pep-1): no antiviral activity
3 | CC[C@H](C)[C@H](NC(=O)[C@@H](NC(=O)[C@H](CCC(=O)O)NC(=O)[C@@H](NC(=O)[C@H](CC(C)C)NC(=O)[C@H](C)NC(=O)[C@H](CCCCN)NC(=O)[C@@H](NC(=O)CN)[C@@H](C)O)[C@@H](C)O)C(C)C)C(=O)N1CCC[C@H]1C(=O)N[C@@H](CC(C)C)C(=O)N[C@H](C(=O)N[C@@H](CCC(=O)O)C(=O)N[C@@H](CCC(=O)O)C(=O)N[C@@H](C)C(=O)N[C@@H](CCC(=O)O)C(=O)O)[C@@H](C)O [Peptide P1] | 7.5 | increase in potency to inhibit RT polymerase over Pep-A ([1]; relative to Pep-A): 5 fold; IC50, block of viral proliferation (in words) [2]: low μM range
4 | CC[C@H](C)[C@H](NC(=O)[C@@H](NC(=O)[C@H](CCC(=O)O)NC(=O)[C@@H](NC(=O)[C@H](CC(C)C)NC(=O)[C@H](C)NC(=O)[C@H](CCCCN)NC(=O)[C@@H](NC(=O)[C@H](C)N)[C@@H](C)O)[C@@H](C)O)C(C)C)C(=O)N1CCC[C@H]1C(=O)N[C@@H](CC(C)C)C(=O)N[C@H](C(=O)N[C@@H](CCC(=O)O)C(=O)N[C@@H](CCC(=O)O)C(=O)N[C@@H](C)C(=O)N[C@@H](CCC(=O)O)C(=O)O)[C@@H](C)O [Peptide P2] | 28 ± 11 | 
5 | CC[C@H](C)[C@H](NC(=O)[C@@H](NC(=O)[C@H](CCC(=O)O)NC(=O)[C@@H](NC(=O)[C@H](CC(C)C)NC(=O)[C@H](C)NC(=O)[C@H](CCCCN)NC(=O)[C@H](C)NC(=O)CN)[C@@H](C)O)C(C)C)C(=O)N1CCC[C@H]1C(=O)N[C@@H](CC(C)C)C(=O)N[C@H](C(=O)N[C@@H](CCC(=O)O)C(=O)N[C@@H](CCC(=O)O)C(=O)N[C@@H](C)C(=O)N[C@@H](CCC(=O)O)C(=O)O)[C@@H](C)O [Peptide P3] | 10.3 ± 2.1 | 
6 | CC[C@H](C)[C@H](NC(=O)[C@@H](NC(=O)[C@H](CCC(=O)O)NC(=O)[C@@H](NC(=O)[C@H](CC(C)C)NC(=O)[C@H](C)NC(=O)[C@H](C)NC(=O)[C@@H](NC(=O)CN)[C@@H](C)O)[C@@H](C)O)C(C)C)C(=O)N1CCC[C@H]1C(=O)N[C@@H](CC(C)C)C(=O)N[C@H](C(=O)N[C@@H](CCC(=O)O)C(=O)N[C@@H](CCC(=O)O)C(=O)N[C@@H](C)C(=O)N[C@@H](CCC(=O)O)C(=O)O)[C@@H](C)O [Peptide P4] | 15 ± 2.9 | 
7 | CC[C@H](C)[C@H](NC(=O)[C@@H](NC(=O)[C@H](CCC(=O)O)NC(=O)[C@@H](NC(=O)[C@H](CC(C)C)NC(=O)CNC(=O)[C@H](CCCCN)NC(=O)[C@@H](NC(=O)CN)[C@@H](C)O)[C@@H](C)O)C(C)C)C(=O)N1CCC[C@H]1C(=O)N[C@@H](CC(C)C)C(=O)N[C@H](C(=O)N[C@@H](CCC(=O)O)C(=O)N[C@@H](CCC(=O)O)C(=O)N[C@@H](C)C(=O)N[C@@H](CCC(=O)O)C(=O)O)[C@@H](C)O [Peptide P5] | 20 ± 3.7 | 
8 | CC[C@H](C)[C@H](NC(=O)[C@@H](NC(=O)[C@H](CCC(=O)O)NC(=O)[C@@H](NC(=O)[C@H](CC(C)C)NC(=O)[C@H](C)NC(=O)[C@H](CCCCN)NC(=O)[C@@H](NC(=O)CN)[C@@H](C)O)[C@@H](C)O)C(C)C)C(=O)N1CCC[C@H]1C(=O)N[C@@H](CC(C)C)C(=O)N[C@H](C(=O)N[C@@H](C)C(=O)N[C@@H](CCC(=O)O)C(=O)N[C@@H](C)C(=O)N[C@@H](CCC(=O)O)C(=O)O)[C@@H](C)O [Peptide P14] | 14 ± 3 | 
9 | CC[C@H](C)[C@H](NC(=O)[C@@H](NC(=O)[C@H](CCC(=O)O)NC(=O)[C@@H](NC(=O)[C@H](CC(C)C)NC(=O)[C@H](C)NC(=O)[C@H](CCCCN)NC(=O)[C@@H](NC(=O)CN)[C@@H](C)O)[C@@H](C)O)C(C)C)C(=O)N1CCC[C@H]1C(=O)N[C@@H](CC(C)C)C(=O)N[C@H](C(=O)N[C@@H](CCC(=O)O)C(=O)N[C@@H](C)C(=O)N[C@@H](C)C(=O)N[C@@H](CCC(=O)O)C(=O)O)[C@@H](C)O [Peptide P15] | 14 ± 2.2 | 
10 | CC[C@H](C)[C@H](NC(=O)[C@@H](NC(=O)[C@H](CCC(=O)O)NC(=O)[C@@H](NC(=O)[C@H](CC(C)C)NC(=O)[C@H](C)NC(=O)[C@H](CCCCN)NC(=O)[C@@H](NC(=O)CN)[C@@H](C)O)[C@@H](C)O)C(C)C)C(=O)N1CCC[C@H]1C(=O)N[C@@H](CC(C)C)C(=O)N[C@H](C(=O)O)[C@@H](C)O [Peptide P18] | 53 ± 12 | inhibition of RT polymerase activity (in words) [1]: does not inhibit RT polymerase activity
11 | GAKTETLVIPETELEA [Pscramble] | 61 ± 12 | 
12 | GTKAATEVIPLT [Peptide P19] | 49 ± 9 | 
13 | GTKAATEVIPLTEEAE [Peptide P6] | 5.7 | IC50, block of viral proliferation (in words) [2]: low μM range
14 | GTKALAEVIPLTEEAE [Peptide P7] | 13.5 ± 2.1 | 
15 | GTKALTEAIPLTEEAE [Peptide P9] | 15 ± 7.3 | 
16 | GTKALTEVAPLTEEAE [Peptide P10] | 7.3 | IC50, block of viral proliferation (in words) [2]: low μM range
17 | GTKALTEVIALTEEAE [Peptide P11] | 7 | IC50, block of viral proliferation (in words) [2]: low μM range
18 | GTKALTEVIPATEEAE [Peptide P12] | 22 ± 3 | 
19 | GTKALTEVIPLAEEAE [Peptide P13] | 10.2 ± 2.5 | 
20 | GTKAWTEVWPL [Peptide P17] | 35 ± 11 | reduction of efficiency (higher Ki) relative to PAW ([1]; relative to PAW): 50 fold
21 | GTKWATEWAPLTAEAE [Peptide P28] | 2 ± 0.6 | 
22 | KWLTEWIPLTAE [Peptide P29] | 1 ± 0.4 | 
